Experimental findings from paper PMC12040169 (PLOS Biology, 2025) are described below.

This series in a line: in vitro. Conditions: human, hela cells, % viability.

Regarding `O=c1c(N2CCCNCC2)nccn1CCOc1ccc(Br)cc1` [CBK028613T], the viability at 28.5 h, 10 µM stood at 95%.

In the case of `Oc1cc(C(F)(F)F)nc(N2CCCC2)n1` [CBK002389], the viability at 28.5 h, 10 µM was found to be 105%.

Turning to `COc1ccc(CNC(=O)C2CCCN(S(C)(=O)=O)C2)cc1OC` (stereo not shown) [CBK299830], the viability at 28.5 h, 10 µM amounted to 90.2%.

Turning to `O=S(=O)(CCN1CCC(Cc2ccccc2)CC1)c1ccccc1` [CBK126386], the viability at 28.5 h, 10 µM was determined as 94.9%.

Regarding `CC1CCc2c(sc3ncn(C4CCNCC4)c(=O)c23)C1` (stereo not shown) [CBK282349], the viability at 28.5 h, 10 µM came to 91.4%.

For the compound `CC(=O)C(C)Oc1ncn(-c2ccccc2)n1` (stereo not shown) [CBK008377], the viability at 28.5 h, 10 µM is 101%.

With `O=C(Oc1ccc2c(c1)C1C=CCC1C(C(=O)O)N2)c1ccc(Cl)cc1Cl` (stereo not shown) [CBK265285], the viability at 28.5 h, 10 µM amounted to 94.2%.

`Cc1cc(CC(=O)NCc2c(-c3ccccc3)noc2C)on1` [CBK144090]: the viability at 28.5 h, 10 µM turned out to be 92.2%.

Regarding `Cc1nc2cc(OCc3nc(C(=O)N(C)CCN(C)C)co3)ccc2s1` [CBK306685], the viability at 28.5 h, 10 µM worked out at 106%.

For `O=C(O)c1cccc(CSc2nnc(-c3ccncc3)o2)c1` [CBK266310], the viability at 28.5 h, 10 µM worked out at 106%.

As to `CCn1cncc1CN1CCCC(c2cc3cccnc3[nH]2)C1` (stereo not shown) [CBK284993], the viability at 28.5 h, 10 µM stood at 98.5%.

Consider `O=C(CN1C(=O)N2CCCN=C2c2ccccc21)NC1CCCC1` [CBK284397], for which the viability at 28.5 h, 10 µM was determined as 82.6%.

Turning to `NC(=O)c1ccnc(Cl)c1` [CBK089827], the viability at 28.5 h, 10 µM worked out at 96%.

Consider `O=[N+]([O-])c1cccc(S(=O)(=O)NCCCn2ccnc2)c1` [CBK266676], for which the viability at 28.5 h, 10 µM was determined as 91.1%.

`O=C(Nc1cccc2cccnc12)c1ccc(Cl)c(Cl)c1` [CBK261318]: the viability at 28.5 h, 10 µM stood at 91.5%.

Consider `CCOCCn1c(=O)c2c(nc3oc(C(C)(C)C)cn32)n(C)c1=O` [CBK307567], for which the viability at 28.5 h, 10 µM was determined as 103%.

Consider `CSCc1nnc(SCCC(=O)N2CCN(c3ccc(F)cc3)CC2)o1` [CBK240463], for which the viability at 28.5 h, 10 µM stood at 93.2%.

Take `CCCC(NC(=O)Nc1ccnn1CC(C)C)c1nccn1C` (stereo not shown) [CBK307444]: the viability at 28.5 h, 10 µM came out at 92.7%.

On to `NC(=O)C1CCN(Cc2cc3c(cc2[N+](=O)[O-])OCO3)CC1` [CBK261885], for which the viability at 28.5 h, 10 µM worked out at 91.7%.

In the case of `NC(=O)Cn1cc(C(=O)c2ccncc2)c(=O)c2cc(Cl)ccc21` [CBK288584], the viability at 28.5 h, 10 µM came to 86%.

`O=C(c1c(F)cccc1F)N1C2CCC1c1snnc1C2` (stereo not shown) [CBK284990]: the viability at 28.5 h, 10 µM amounted to 91.5%.

Take `Cc1c(Nc2ncnc3sc4c(c23)CCCC4)c(=O)n(-c2ccccc2)n1C` [CBK093912]: the viability at 28.5 h, 10 µM stood at 93.1%.

Take `O=[N+]([O-])c1ccccc1CN1CCC(N2CCCCC2)CC1` [CBK261852]: the viability at 28.5 h, 10 µM stood at 88.7%.

With `O=C(Cc1cccc(F)c1)N1CCC(c2cc3ncccc3[nH]2)CC1` [CBK283374], the viability at 28.5 h, 10 µM came out at 100%.

`Cc1cc(-c2ccc(/N=C/c3cccc(O)c3O)c(C)c2)ccc1/N=C/c1cccc(O)c1O` [CBK261613]: the viability at 28.5 h, 10 µM was 82.6%.

Consider `CC[C@H](C)[C@H](NC(N)=O)C(=O)Nc1ccc(F)c([N+](=O)[O-])c1` [CBK297489], for which the viability at 28.5 h, 10 µM turned out to be 97.1%.

For the compound `NC(=O)C1CCN(c2ncnc3c2oc2ccccc23)CC1` [CBK287789], the viability at 28.5 h, 10 µM came to 87.6%.

Regarding `COCCOc1nccnc1N1CCNCC1` [CBK001903G], the viability at 28.5 h, 10 µM was determined as 103%.

In the case of `Cn1nccc1C(=O)N1CCC2(C/C=C/COc3ccccc3C(=O)NC[C@@H](Cc3ccccc3)NC2=O)CC1` [CBK292183], the viability at 28.5 h, 10 µM amounted to 99.8%.

As for `O=C(O)c1cc(-n2c(S)nnc2-c2ccncc2)ccc1Cl` [CBK268989], the viability at 28.5 h, 10 µM amounted to 94.9%.

For `COc1cccc2sc(NC(=O)Cc3ccccc3)nc12` [CBK149284], the viability at 28.5 h, 10 µM turned out to be 103%.

Take `Cc1ccc(-n2cc(-c3ccccc3)[nH]c2=O)cc1` [CBK288103]: the viability at 28.5 h, 10 µM is 101%.

On to `Cc1cc(C)cc(CNC(=O)NCCc2cccs2)c1` [CBK043459], for which the viability at 28.5 h, 10 µM is 103%.

As for `COc1ccccc1NC(=O)N1C[C@@H]2C[C@H](C1)c1c(-c3cccs3)ccc(=O)n1C2` [CBK289191], the viability at 28.5 h, 10 µM was 107%.

On to `CCN1CCN(c2nccnc2OCc2cccnc2)CC1` [CBK083142], for which the viability at 28.5 h, 10 µM came out at 113%.

Turning to `CN(C)Cc1cc(CN(C)C)c(O)c(C(C)(C)C)n1` [CBK260969], the viability at 28.5 h, 10 µM is 90.6%.

Turning to `Cc1cnc(CNC(=O)/C=C/c2ccc(C(C)C)cc2)cn1` [CBK149625], the viability at 28.5 h, 10 µM was found to be 99.4%.

For the compound `O=C(NC1CCN(CCOc2ccccc2F)CC1)c1cccs1` [CBK305737], the viability at 28.5 h, 10 µM is 96.8%.

Take `CCc1onc(C)c1NC(=O)NC1CC2(CCCC2)Oc2ccccc21` (stereo not shown) [CBK305890]: the viability at 28.5 h, 10 µM is 97.6%.

On to `CCOC(=O)CCC(=O)n1c2ccccc2c2ccccc21` [CBK001170], for which the viability at 28.5 h, 10 µM is 67.2%.

For `CC(C)[C@@H](CO)Nc1nc(-c2occc2C=O)cnc1N` [CBK063733], the viability at 28.5 h, 10 µM was found to be 102%.

Turning to `COCCOC(=O)N1CCC(N(C)Cc2ccc(-c3ccc(S(C)(=O)=O)cc3)nc2)CC1` [CBK165258T], the viability at 28.5 h, 10 µM is 96.7%.

On to `CC(C)COC(=O)n1ccc(C(=O)N2CCCCC2)n1` [CBK058828], for which the viability at 28.5 h, 10 µM worked out at 84.9%.

For `CC(=O)c1sc(NC(=O)c2ccccc2)nc1-c1ccccc1` [CBK287315], the viability at 28.5 h, 10 µM is 87.8%.

Take `COc1ccc(C2(C(=O)NCc3ccc(-c4ccc(C(N)=O)c(C)n4)cc3)CCCC2)cc1` [CBK285647]: the viability at 28.5 h, 10 µM was 96%.

For `O=C(Nc1ccccc1C(=O)O)c1cccc(NC(=O)c2ccco2)c1` [CBK299774], the viability at 28.5 h, 10 µM worked out at 88.1%.

Consider `CCn1c(SCc2nc(-c3ccc(Br)cc3)no2)nnc1-c1c[nH]c2ccccc12` [CBK268668], for which the viability at 28.5 h, 10 µM was determined as 94.3%.

Turning to `Sc1nnc(COc2ccccc2)n1/N=C/c1ccc(-c2ccccc2)cc1` [CBK265269], the viability at 28.5 h, 10 µM is 117%.

Turning to `NC(=O)c1c(NC(=O)c2ccc(COc3cc(Cl)ccc3Cl)o2)sc2c1CCCC2` [CBK265775], the viability at 28.5 h, 10 µM is 85.4%.

Turning to `c1nnc(SCc2ccc(CSc3nnc[nH]3)cc2)[nH]1` [CBK263282], the viability at 28.5 h, 10 µM was determined as 93.5%.

For `O=C(CN1CCC(C(=O)c2ccc(F)cc2)CC1)Nc1ncccn1` [CBK149131], the viability at 28.5 h, 10 µM was 95.7%.

In the case of `CN1CCN(C(=O)c2ccc(-c3cncc(-c4cc5ccccc5[nH]4)n3)c(F)c2)CC1` [CBK144906], the viability at 28.5 h, 10 µM stood at 92.8%.

Consider `COc1ccc(S(=O)(=O)N(c2ccccc2)C2CCNCC2)cc1OC` [CBK165076T], for which the viability at 28.5 h, 10 µM was 73.9%.

Take `Cc1ccc(S(=O)(=O)NC2c3cccc4cccc(c34)C2Sc2nnc(N)s2)cc1` (stereo not shown) [CBK265835]: the viability at 28.5 h, 10 µM came to 107%.

Regarding `O=c1nc(NS(=O)(=O)c2ccccc2Br)c(F)c[nH]1` [CBK067573], the viability at 28.5 h, 10 µM was 76.6%.

Turning to `CCCOC(=O)N(O)c1ccc(Cl)c(Cl)c1` [CBK288400], the viability at 28.5 h, 10 µM was determined as 94.4%.

`O=[N+]([O-])c1cccc(C(Nc2cccnc2)c2cc(Cl)c3cccnc3c2O)c1` (stereo not shown) [CBK268629]: the viability at 28.5 h, 10 µM turned out to be 93.7%.

On to `O=C(CN1CCN(c2ccc(C(F)(F)F)cn2)CC1)c1ccc2c(c1)OCCO2` [CBK074700], for which the viability at 28.5 h, 10 µM worked out at 98.3%.
